# In patent US20090018150A1, “5-Ht2b Receptor Antagonists” (ASTERAND UK LIMITED, priority 2003, published 2009):
# Where a name gives a salt, the structure may show the parent alone.
# Assays:
# [1] = target: T1, cloned human 5-HT2C receptor (Homo sapiens, UniProt P28335); experiment: Human 5-HT2C receptor binding assay; conditions: [3H]mesulergine (1 nM) displacement, CHO-K1 cell membranes; read-out: 5-HT2C pKi (converted)
# T1 construct: purchased Euroscreen; host or cells: CHO-K1
# T1 sequence (P28335 33-458): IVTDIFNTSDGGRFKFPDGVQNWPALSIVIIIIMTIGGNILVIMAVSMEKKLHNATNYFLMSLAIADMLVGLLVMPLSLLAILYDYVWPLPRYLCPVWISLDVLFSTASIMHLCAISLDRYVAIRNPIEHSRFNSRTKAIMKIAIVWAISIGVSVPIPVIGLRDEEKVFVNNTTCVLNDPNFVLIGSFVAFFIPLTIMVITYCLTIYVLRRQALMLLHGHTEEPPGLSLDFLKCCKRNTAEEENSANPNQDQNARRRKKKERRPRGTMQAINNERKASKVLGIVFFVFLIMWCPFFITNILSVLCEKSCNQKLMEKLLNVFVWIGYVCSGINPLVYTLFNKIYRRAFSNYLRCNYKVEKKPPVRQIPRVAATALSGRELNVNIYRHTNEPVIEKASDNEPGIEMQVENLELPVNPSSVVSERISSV
# Experimental: (§1) The binding affinity of ligands for human 5-HT2A and 5-HT2C receptors was determined using the following assay.
# Membrane preparations from CHO-K1 cells expressing the cloned human 5-HT2C receptor were obtained (Euroscreen). The membranes were thawed rapidly and diluted in assay buffer containing Tris-HCl (50 mM, pH 7.7), ascorbic acid (0.1%) and pargyline (10 μM). The membranes were resuspended by homogenisation, prior to adding 6 μg of membranes to assay wells containing [^3H]mesulergine (1 nM), assay buffer (50 mM Tris at pH 7.7 and 0.1% ascorbic acid) containing pargyline (10 μM), and test compounds (1×10^−10 to 1×10^−4M). Non specific binding was determined in the presence of 100 μM mianserin. After 30 minutes incubation at 37° C., the assay mixture was filtered through a combination of GF-C and GF-B filters, pre-soaked in 1% bovine serum albumin, using a Brandel cell harvester, and were washed three times using ice cold Tris-HCl buffer (50 mM). Radioactivity retained on the filters was determined by liquid scintillation counting. For each test compound, the concentration that inhibited binding of [^3H]mesulergine by 50% was determined using curve fitting software (Prism). Kd values (concentration of mesulergine required to occupy 50% of the receptor binding sites at equilibrium) determined from saturation binding studies were then used to calculate inhibition dissociation constants (Ki) using the following equation: […]
# [2] = target: T2, human cloned 5-HT2B receptors (Homo sapiens, UniProt P41595); experiment: Human cloned 5-HT2B receptor binding assay; conditions: [3H]LSD (1 nM) displacement, membranes of CHO-K1 cells expressing cloned 5-HT2B receptor; read-out: 5-HT2B pKi (converted)
# T2 construct: expressed in transfected cells; host or cells: CHO-K1
# T2 sequence (P41595 whole entry): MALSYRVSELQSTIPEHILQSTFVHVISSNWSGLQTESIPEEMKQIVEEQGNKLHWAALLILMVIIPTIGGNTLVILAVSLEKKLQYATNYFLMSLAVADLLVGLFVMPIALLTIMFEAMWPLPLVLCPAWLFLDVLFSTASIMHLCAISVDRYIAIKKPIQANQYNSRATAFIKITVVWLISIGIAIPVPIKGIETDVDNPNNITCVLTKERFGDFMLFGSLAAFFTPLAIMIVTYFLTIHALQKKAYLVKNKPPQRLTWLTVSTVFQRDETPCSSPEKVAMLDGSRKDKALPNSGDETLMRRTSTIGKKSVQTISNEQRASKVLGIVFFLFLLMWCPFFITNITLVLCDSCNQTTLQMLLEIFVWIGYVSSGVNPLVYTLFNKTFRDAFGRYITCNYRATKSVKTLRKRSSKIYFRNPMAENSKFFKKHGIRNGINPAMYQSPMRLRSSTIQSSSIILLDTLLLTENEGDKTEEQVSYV
# Experimental: The binding affinity of the compounds for human cloned 5-HT2B receptors was determined using the following assay.
# CHO-K1 cells expressing cloned 5-HT2B receptor were maintained in Ultra-CHO medium containing 400 μg/ml of G418, 100 U/ml penicillin, 100 μg/ml streptomycin, 2.5 μg/ml fungizone and 1-foetal bovine serum, in 95/5% O2/CO2 at 37° C. The cells were harvested using 0.25% trypsin and were centrifuged at 800 rpm for 8 minutes. The cells were homogenised in 50 mM HEPES buffer containing 1 mM disodium EDTA and 1 mM PMSF at pH 7.4, using a Dounce homogeniser (20 strokes). The homogenate was centrifuged at 2280 rpm (1000 g) and 4° C. for 10 minutes, after which the supernatant was removed by decanting. The pellet was re-homogenised as above, and the resulting supernatant removed and combined with that already obtained. The supernatant solution was then centrifuged at 18300 rpm (40000 g) for 10 minutes at 4° C. using a Sorvall centrifuge. The supernatant was removed, and the pellet was re-suspended in 50 mM buffer at pH 7.4 using a Ultra-turrax T25 Polytron, before centrifugation again at 40000 g as above. This wash procedure was repeated, after which the membrane preparation was stored at a concentration of 1 mg/ml at −80° C. until use.
# The membranes were thawed rapidly and diluted in assay buffer containing Tris-HCl (50 mM, pH 7.4), ascorbic acid (0.1°) and calcium chloride (4 mM). The membranes were homogenised to resuspend them, prior to adding 10 or 15 μg of membranes to assay wells containing [^3H]LSD (1 nM), assay buffer (50 mM Tris, 4 mM calcium chloride and 0.1° ascorbic acid) containing pargyline (10 μM), and the test compounds (1×10^−10 to 1×10^−4M). Non specific binding was determined in the presence of 100 μM 5-HT. After 30 minutes incubation at 37° C., the assay mixture was filtered through a combination of GF-C and GF-B filters, pre-soaked in 1% polyethyleneimine, using a Brandel cell harvester, and were washed three times using 50 mM Tris-HCl. Radioactivity retained on the filters was determined by liquid scintillation counting. For each test compound, the concentration that inhibited binding of [^3H]LSD by 50% was determined using curve fitting software (Prism). Kd values (concentration of LSD required to occupy 50% of the receptor binding sites at equilibrium) determined from saturation binding studies were then used to calculate inhibition dissociation constants (Ki) using the following equation: […]
# This approach follows that set out in Kenakin, T. P. Pharmacologic analysis of drug-receptor interaction. Raven Press, New York, 2nd Edition.
# [3] = target: T3, cloned human 5-HT2A receptor (Homo sapiens, UniProt P28223); experiment: Human 5-HT2A receptor binding assay; conditions: [3H]ketanserin (1 nM) displacement, CHO-K1 cell membranes; read-out: 5-HT2A pKi (converted)
# T3 construct: purchased Euroscreen; host or cells: CHO-K1
# T3 sequence (P28223 whole entry): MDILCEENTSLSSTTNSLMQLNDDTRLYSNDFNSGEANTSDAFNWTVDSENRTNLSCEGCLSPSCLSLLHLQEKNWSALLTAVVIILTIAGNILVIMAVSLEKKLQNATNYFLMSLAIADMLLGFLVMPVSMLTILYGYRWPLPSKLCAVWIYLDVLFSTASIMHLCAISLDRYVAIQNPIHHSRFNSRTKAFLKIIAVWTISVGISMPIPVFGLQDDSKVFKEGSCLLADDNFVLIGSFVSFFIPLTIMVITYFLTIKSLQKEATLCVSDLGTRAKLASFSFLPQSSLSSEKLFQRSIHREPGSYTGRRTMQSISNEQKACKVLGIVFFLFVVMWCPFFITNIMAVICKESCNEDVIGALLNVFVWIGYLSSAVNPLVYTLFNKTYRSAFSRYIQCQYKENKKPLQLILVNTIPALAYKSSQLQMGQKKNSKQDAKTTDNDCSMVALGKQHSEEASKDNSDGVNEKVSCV
# Experimental: as §1
# Membrane preparations from CHO-K1 cells expressing the cloned human 5-HT2A receptor were obtained (Euroscreen). The membranes were thawed rapidly and diluted in assay buffer containing Tris-HCl (50 mM, pH 7.7). The membranes were resuspended by homogenisation, prior to adding 15 μg of membranes to assay wells containing [3H]ketanserin (1 nM), assay buffer (50 mM Tris at pH 7.4) containing pargyline (10 μM), and test compounds (1×10^−10 to 1×10^−4M). Non specific binding was determined in the presence of 100 μM mianserin. After 15 minutes incubation at 37° C., the assay mixture was filtered through a combination of GF-C and GF-B filters, pre-soaked in 0.05% Brij, using a Brandel cell harvester, and were washed three times using ice cold Tris-HCl buffer (50 mM). Radioactivity retained on the filters was determined by liquid scintillation counting. For each test compound, the concentration that inhibited binding of [^3H]ketanserin by 50% was determined using curve fitting software (Prism). Kd values (concentration of ketanserin required to occupy 50% of the receptor binding sites at equilibrium) determined from saturation binding studies were then used to calculate inhibition dissociation constants (Ki) using the following equation: […]
Compound,Ki [1],Ki [2],Ki [3]
"Cn1nc(N)nc1Nc1cccc(-c2ccccc2)c1 [Compound 406A, N^5-biphenyl-3-yl-1-methyl-1H-[1,2,4]triazole-3,5-diamine]",> 1000 nM,< 316 nM,> 1000 nM
"Cc1cccc(-c2cc(Nc3cc(C)nc(N)n3)ccc2C)c1 [Compound 12, N^4-(6,3′-dimethyl-biphenyl-3-yl)-6-methyl-pyrimidine-2,4-diamine]",> 1000 nM,< 100 nM,> 1000 nM
"Cc1cc(Nc2cccc(Br)c2C)nc(N)n1 [Compound 2T, N^4-(3-bromo-2-methyl-phenyl)-6-methyl-pyrimidine-2,4-diamine hydrochloride]",> 1000 nM,< 1000 nM,> 1000 nM
"CC(=O)Nc1nc(-c2cccc3ccc(Br)cc23)c[nH]1 [Compound 103G, N-[4-(7-Bromo-naphthalen-1-yl)-1H-imidazol-2-yl]-acetamide]",> 1000 nM,< 100 nM,> 1000 nM
"Nc1ncc(-c2cccc(-c3cccc(O)c3)c2)o1 [Compound 209C, 3′-(2-Amino-oxazol-5-yl)-biphenyl-3-ol]",> 10000 nM,< 1000 nM,> 10000 nM
"Cc1cc(Nc2ccc(Cl)c(Cl)c2)nc(N)n1 [Compound 2N, N^4-(3,4-dichloro-phenyl)-6-methyl-pyrimidine-2,4-diamine hydrochloride]",> 1000 nM,< 1000 nM,> 1000 nM
"COc1c(-c2cnc(N)[nH]2)ccc2ccccc12 [Compound 104E, 4-(1-Methoxy-naphthalen-2-yl)-1H-imidazol-2-ylamine]",> 100 nM,< 100 nM,> 1000 nM
"Cc1cc(Nc2cccc(C(F)(F)F)c2)nc(N)n1 [Compound 2H, 6-Methyl-N^4-(3-trifluoromethyl-phenyl)-pyrimidine-2,4-diamine, hydrochloride]",> 1000 nM,< 1000 nM,> 10000 nM
"Cc1cc(Oc2cccc3ccccc23)nc(N)n1 [Compound 4B, 4-methyl-6-(naphthalen-1-yloxy)-pyrimidin-2-ylamine]",> 10000 nM,< 100 nM,> 10000 nM
"Cc1cc(Nc2cccc(-c3ccc(N(C)C)cc3)c2)nc(N)n1 [Compound 10H, N^4-(4′-dimethylamino-biphenyl-3-yl)-6-methyl-pyrimidine-2,4-diamine bis trifluoroacetic acid]",> 316 nM,< 100 nM,> 316 nM
"Cc1cccc(-c2ccc(Nc3nc(N)nn3C)cc2)c1 [Compound 410C, 1-methyl-N^5-(3′-methyl-biphenyl-4-yl)-1H-[1,2,4]triazole-3,5-diamine trifluoroacetic acid]",> 1000 nM,< 1000 nM,> 1000 nM
"Cc1cccc(-c2cccc(-c3nc(N)oc3C)c2)c1 [Compound 218B, 5-Methyl-4-(3′-methyl-biphenyl-3-yl)-oxazol-2-ylamine, trifluoroacetic acid]",,< 1000 nM,
"CC(=O)Nc1ncc(-c2sc3ccccc3c2C)[nH]1 [Compound 103O, N-[4-(3-Methyl-benzo[b]thiophen-2-yl)-1H-imidazol-2-yl]-acetamide]",> 10000 nM,< 1000 nM,> 10000 nM
"COc1ccccc1-c1ccc(Nc2nc(N)n(C)n2)cc1 [Compound 411B, N^3-(2′-methoxy-biphenyl-4-yl)-7-methyl-1H-[1,2,4]triazole-3,5-diamine trifluoroacetic acid]",> 1000 nM,< 1000 nM,> 1000 nM
"Cc1ccc(Nc2cc(C)nc(N)n2)cc1 [Compound 2U, 6-methyl-N^4-p-tolyl-pyrimidine-2,4-diamine hydrochloride]",> 1000 nM,< 1000 nM,> 1000 nM
"CC(C)c1cccc(-c2cccc(-c3cnc(N)o3)c2)c1 [Compound 209M, 5-(3′-Isopropyl-biphenyl-3-yl)-oxazol-2-ylamine, trifluoroacetic acid]",,< 1000 nM,
"Cc1cc(Nc2ccc(N3CCOCC3)cc2)nc(N)n1 [Compound 2K, 6-methyl-N^4-(4-morpholin-4-yl-phenyl)-pyrimidine-2,4-diamine hydrochloride]",> 10000 nM,< 1000 nM,> 10000 nM
"COc1ccccc1-c1cccc(Nc2cc(C)nc(N)n2)c1 [Compound 10F, N^4-(2′-methoxy-biphenyl-3-yl)-6-methyl-pyrimidine-2,4-diamine trifluoroacetic acid]",> 100 nM,< 100 nM,> 316 nM
"Cc1cc(Nc2ccc(F)cc2)nc(N)n1 [Compound 2I, N^4-(4-fluoro-phenyl)-6-methyl-pyrimidine-2,4-diamine hydrochloride]",> 1000 nM,< 1000 nM,> 10000 nM
"Cc1cc(Nc2cccc(I)c2)nc(N)n1 [Compound 2G, N^4-(3-iodo-phenyl)-6-methyl-pyrimidine-2,4-diamine hydrochloride]",> 316 nM,< 100 nM,> 3160 nM
"CC(=O)Nc1nc(-c2cccc(-c3ccccc3)c2)c[nH]1 [Compound 107, N-(4-biphenyl-3-yl-1H-imidazol-2-yl)-acetamide]",,< 1000 nM,
"Cc1cc(Nc2cccc(-c3cccc(O)c3)c2)nc(N)n1 [Compound 10G, 3′-(2-amino-6-methyl-pyrimidin-4-ylamino)-biphenyl-3-ol trifluoroacetic acid]",,< 100 nM,
"Cc1cc(Nc2ccc(C)c(I)c2)nc(N)n1 [Compound 2AK, N^4-(3-iodo-4-methyl-phenyl)-6-methyl-pyrimidine-2,4-diamine trifluoroacetic acid]",,< 100 nM,
